Values quoted from earlier work as cited in US12102684B2, “Methods of making and using polyphenols complexed with a protein, peptide, amino acid, polysaccharide, disaccharide, or monosaccharide” (priority 2016, dated 2024).

Columns and labels:
[1] = previous studies

SMILES | solubility in organic solvents (organic solvents (methanol, acetone, DMSO, etc.)) | solubility in water | oral clearance [1]
Oc1ccc(/C=C/c2cc(O)cc(O)c2)cc1 [Resveratrol, 3,5,4′-trihydroxy-trans-stilbene] | 16-50 grams/liter | 0.03 grams/liter | –
COc1cc([C@@H]2Oc3c(O)cc([C@H]4Oc5cc(O)cc(O)c5C(=O)[C@@H]4O)cc3[C@H]2CO)ccc1O [Silychristin] | – | water insoluble | –
COc1cc(/C=C/C(=O)CC(=O)/C=C/c2ccc(O)c(OC)c2)ccc1O [curcumin, (1E,6E)-1,7-bis(4hydroxy-3-methoxyphenyl)hepta-1,6-diene-3,5-dione] | – | very poor | 1808 mL/min/kg
